Laboratory results: US20230159538A1, “PYRROLIDINE-PYRAZOLES AS PYRUVATE KINASE ACTIVATORS” (Global Blood Therapeutics, Inc., priority 2020, published 2023)

Biological target: T1, Human pyruvate kinase R (PKR) (Homo sapiens, UniProt P30613)
T1 construct: Human pyruvate kinase R (PKR), residues 14-574; 6x-His (N, cleaved yes); 8x-Arg (N, cleaved yes); SUMO (N, cleaved yes); host or cells: E. coli
Assay: Biochemical assay for activation of pyruvate kinase R (Kinase-Glo luminescence, ATP generation)
Conditions: for AC50: 0.1 nM PKR, 2 mM FBP, 0.3 mM ADP, 0.1 mM PEP; for PKR % activation: maximal activation level relative to the activation level achieved by AG-348 @ 10 μM
Protocol: Proteins were translated as fusions with 6×-His, 8×-Arg, and SUMO at the N-terminus. […] All proteins were cloned, expressed in E. coli, and purified using similar protocols. Cells were grown at 30° C. in Luria-Bertani broth supplemented with 0.4% glucose to OD600=0.8 and induced with 0.4 mM IPTG at 16° C. for 18 hours. Cells were harvested by centrifugation, resuspended in 50 mM potassium phosphate pH 8.0, 500 mM NaCl, 25 mM imidazole pH 8.0, and 3 mM β-mercaptoethanol. Cells were lysed using a LM20 microfluidizer from Microfluidics (Westwood, Mass.). The crude lysate was immediately supplemented with 0.2 mM phenylmethylsulfonyl fluoride (PMSF) and centrifuged at 20,000 g for 20 minutes. The soluble fraction was subsequently incubated with 2 mL Ni-NTA (GE Healthcare) per 1,000 ODs for 1 hour at 4° C. Following incubation with the Ni-NTA resin, lysate was removed by pelleting resin at 2,500 g for 3 minutes and washed 3 times with 9 bed volumes of 50 mM potassium phosphate pH 8.0, 500 mM NaCl, 25 mM imidazole, and 3 mM β-mercaptoethanol. Following the batch wash Ni-NTA resin was loaded onto a gravity column and His-tagged protein was eluted with 6 bed volumes of 10 mM Tris/HCl pH 8.0, 200 mM NaCl, 500 mM imidazole, and 3 mM β-mercaptoethanol. Eluted protein was dialyzed overnight against 10 mM Tris/HCl pH 8.0, 200 mM NaCl, and 1 mM DTT and the 6×-His-8×-Arg-SUMO-tag was cleaved using a 20:1 molar ratio of protein:3C protease. The protein was purified by anion exchange chromatography on a HiTrapQ or MonoQ 10/100 GL column (GE Healthcare) via a linear NaCl gradient and twice by size exclusion chromatography using a Superdex S200 26/60 column (GE Healthcare) run in 10 mM Tris/HCl pH 8.0, 200 mM NaCl, 10 mM MgCl2, 1 mM DTT. Proteins were concentrated to ˜12 mg/mL for crystallization and flash frozen for storage.
Biochemical Assay for Activation of Pyruvate Kinase R
Activation of pyruvate kinase R (PKR) and pyruvate kinase M2 (PKM2) were measured using a luminescence based measurement of ATP generation and the Kinase-Glo luminescent kinase reagent kit.

T1 sequence (P30613 14-574): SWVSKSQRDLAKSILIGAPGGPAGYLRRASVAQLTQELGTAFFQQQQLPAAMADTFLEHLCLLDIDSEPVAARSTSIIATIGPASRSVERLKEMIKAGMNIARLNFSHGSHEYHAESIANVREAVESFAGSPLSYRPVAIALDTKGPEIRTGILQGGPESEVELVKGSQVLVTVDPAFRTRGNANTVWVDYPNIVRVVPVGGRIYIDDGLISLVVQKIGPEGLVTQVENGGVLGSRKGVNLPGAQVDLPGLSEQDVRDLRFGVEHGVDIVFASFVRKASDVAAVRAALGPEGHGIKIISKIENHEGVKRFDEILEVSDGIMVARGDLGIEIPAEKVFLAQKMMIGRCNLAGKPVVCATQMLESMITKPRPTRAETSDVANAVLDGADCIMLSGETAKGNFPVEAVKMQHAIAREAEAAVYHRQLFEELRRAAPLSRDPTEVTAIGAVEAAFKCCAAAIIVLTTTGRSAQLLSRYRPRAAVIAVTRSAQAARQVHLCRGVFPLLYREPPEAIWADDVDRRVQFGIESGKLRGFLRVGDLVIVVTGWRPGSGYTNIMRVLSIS

Compound | AC50 [nM] | PKR % activation [%]
COC(C(=O)N1Cc2cn(S(=O)(=O)c3ccc(OC(F)F)cc3)nc2C1)c1ccccc1F (racemic) [Compound 98, 1-{2-[4-(difluoromethoxy)benzenesulfonyl]-2H,4H,5H,6H-pyrrolo[3,4-c]pyrazol-5-yl}-2-(2-fluorophenyl)-2-methoxyethan-1-one] | 210 | 
O=C([C@@H](CO)c1ccccc1)N1Cc2cn(S(=O)(=O)c3ccc(OC(F)F)cc3)nc2C1 (single isomer, unassigned) [Compound 8, (2R)-1-{2-[4-(difluoromethoxy)benzenesulfonyl]-2H,4H,5H,6H-pyrrolo[3,4-c]pyrazol-5-yl}-3-hydroxy-2-phenylpropan-1-one, or (2S)-1-{2-[4-(difluoromethoxy)benzenesulfonyl]-2H,4H,5H,6H-pyrrolo[3,4-c]pyrazol-5-yl}-3-hydroxy-2-phenylpropan-1-one] | 1980 | 152
O=C(N1Cc2cn(S(=O)(=O)c3ccc4ncsc4c3)nc2C1)[C@]1(c2ccccn2)CCOC1 (single isomer, unassigned) [Compound 19, 6-({5-[(3S)-3-(pyridin-2-yl)oxolane-3-carbonyl]-2H,4H,5H,6H-pyrrolo[3,4-c]pyrazol-2-yl}sulfonyl)-1,3-benzothiazole or 6-({5-[(3R)-3-(pyridin-2-yl)oxolane-3-carbonyl]-2H,4H,5H,6H-pyrrolo[3,4-c]pyrazol-2-yl}sulfonyl)-1,3-benzothiazole] | 699 | 59
Cc1ccc(C2(C(=O)N3Cc4cn(S(=O)(=O)c5ccc6ncsc6c5)nc4C3)CCOC2)cn1 (single isomer, unassigned) [Compound 31, 6-({5-[(3S)-3-(6-methylpyridin-3-yl)oxolane-3-carbonyl]-2H,4H,5H,6H-pyrrolo[3,4-c]pyrazol-2-yl}sulfonyl)-1,3-benzothiazole or 6-({5-[(3R)-3-(6-methylpyridin-3-yl)oxolane-3-carbonyl]-2H,4H,5H,6H-pyrrolo[3,4-c]pyrazol-2-yl}sulfonyl)-1,3-benzothiazole] | 173 | 
Cc1cccc([C@@]2(C(=O)N3Cc4cn(S(=O)(=O)c5ccc6ncsc6c5)nc4C3)CCOC2)n1 (single isomer, unassigned) [Compound 36, 6-({5-[(3S)-3-(6-methylpyridin-2-yl)oxolane-3-carbonyl]-2H,4H,5H,6H-pyrrolo[3,4-c]pyrazol-2-yl}sulfonyl)-1,3-benzothiazole or 6-({5-[(3R)-3-(6-methylpyridin-2-yl)oxolane-3-carbonyl]-2H,4H,5H,6H-pyrrolo[3,4-c]pyrazol-2-yl}sulfonyl)-1,3-benzothiazole] | 591 | 38
O=C(N1Cc2cn(S(=O)(=O)c3ccc4c(c3)NCCO4)nc2C1)[C@]1(c2ccccn2)CCOC1 (single isomer, unassigned) [Compound 45, 6-({5-[(3S)-3-(pyridin-2-yl)oxolane-3-carbonyl]-2H,4H,5H,6H-pyrrolo[3,4-c]pyrazol-2-yl}sulfonyl)-3,4-dihydro-2H-1,4-benzoxazine or 6-({5-[(3R)-3-(pyridin-2-yl)oxolane-3-carbonyl]-2H,4H,5H,6H-pyrrolo[3,4-c]pyrazol-2-yl}sulfonyl)-3,4-dihydro-2H-1,4-benzoxazine] | 15 | 94
O=C(N1Cc2cn(S(=O)(=O)c3ccc4c(c3)NCCO4)nc2C1)[C@]1(c2ccccn2)CCOC1 (single isomer, unassigned) [Compound 46, 6-({5-[(3S)-3-(pyridin-2-yl)oxolane-3-carbonyl]-2H,4H,5H,6H-pyrrolo[3,4-c]pyrazol-2-yl}sulfonyl)-3,4-dihydro-2H-1,4-benzoxazine or 6-({5-[(3R)-3-(pyridin-2-yl)oxolane-3-carbonyl]-2H,4H,5H,6H-pyrrolo[3,4-c]pyrazol-2-yl}sulfonyl)-3,4-dihydro-2H-1,4-benzoxazine] | 129 | 45
O=C(N1Cc2cn(S(=O)(=O)c3ccc4ncsc4c3)nc2C1)C1(c2ccccc2)CCCN1 (single isomer, unassigned) [Compound 54, 6-({5-[(2S)-2-phenylpyrrolidine-2-carbonyl]-2H,4H,5H,6H-pyrrolo[3,4-c]pyrazol-2-yl}sulfonyl)-1,3-benzothiazole or 6-({2-[(2R)-2-phenylpyrrolidine-2-carbonyl]-2H,4H,5H,6H-pyrrolo[3,4-c]pyrazol-2-yl}sulfonyl)-1,3-benzothiazole] | 4000 | 

Second part, the molecule after the results:

AC50 [nM] | PKR % activation [%] | Compound
39 |  | O=C(C(CO)c1ccncc1)N1Cc2cn(S(=O)(=O)c3ccc4ncsc4c3)nc2C1 (racemic) [Compound 27, 1-[2-(1,3-benzothiazole-6-sulfonyl)-2H,4H,5H,6H-pyrrolo[3,4-c]pyrazol-5-yl]-3-hydroxy-2-(pyridin-4-yl)propan-1-one]
556 | 127 | O=C([C@H](CO)c1ccccc1)N1Cc2cn(S(=O)(=O)c3ccc4ncsc4c3)nc2C1 (single isomer, unassigned) [Compound 2, (2S)-1-[2-(1,3-benzothiazole-6-sulfonyl)-2H,4H,5H,6H-pyrrolo[3,4-c]pyrazol-5-yl]-3-hydroxy-2-phenylpropan-1-one or (2R)-1-[2-(1,3-benzothiazole-6-sulfonyl)-2H,4H,5H,6H-pyrrolo[3,4-c]pyrazol-5-yl]-3-hydroxy-2-phenylpropan-1-one]
75 |  | CC(CO)(C(=O)N1Cc2cn(S(=O)(=O)c3ccc4ncsc4c3)nc2C1)c1ccccn1 (single isomer, unassigned) [Compound 43, (2R)-1-[2-(1,3-benzothiazole-6-sulfonyl)-2H,4H,5H,6H-pyrrolo[3,4-c]pyrazol-5-yl]-3-hydroxy-2-methyl-2-(pyridin-2-yl)propan-1-one or (2S)-1-[2-(1,3-benzothiazole-6-sulfonyl)-2H,4H,5H,6H-pyrrolo[3,4-c]pyrazol-5-yl]-3-hydroxy-2-methyl-2-(pyridin-2-yl)propan-1-one]
550 | 86 | C[C@@](CO)(C(=O)N1Cc2cn(S(=O)(=O)c3ccc4ncsc4c3)nc2C1)c1ccccn1 (single isomer, unassigned) [Compound 44, (2R)-1-[2-(1,3-benzothiazole-6-sulfonyl)-2H,4H,5H,6H-pyrrolo[3,4-c]pyrazol-5-yl]-3-hydroxy-2-methyl-2-(pyridin-2-yl)propan-1-one or (2S)-1-[2-(1,3-benzothiazole-6-sulfonyl)-2H,4H,5H,6H-pyrrolo[3,4-c]pyrazol-5-yl]-3-hydroxy-2-methyl-2-(pyridin-2-yl)propan-1-one]
64 | 40 | Cc1ncccc1[C@@H](N)C(=O)N1Cc2cn(S(=O)(=O)c3ccc4ncsc4c3)nc2C1 (single isomer, unassigned) [Compound 47, (2R)-2-amino-1-[2-(1,3-benzothiazole-6-sulfonyl)-2H,4H,5H,6H-pyrrolo[3,4-c]pyrazol-5-yl]-2-(2-methylpyridin-3-yl)ethan-1-one or (2S)-2-amino-1-[2-(1,3-benzothiazole-6-sulfonyl)-2H,4H,5H,6H-pyrrolo[3,4-c]pyrazol-5-yl]-2-(2-methylpyridin-3-yl)ethan-1-one]
223 | 46 | C[C@@](CO)(C(=O)N1Cc2cn(S(=O)(=O)c3ccc4c(c3)OCCO4)nc2C1)c1ccccn1 (single isomer, unassigned) [Compound 48, (2R)-1-[2-(2,3-dihydro-1,4-benzodioxine-6-sulfonyl)-2H,4H,5H,6H-pyrrolo[3,4-c]pyrazol-5-yl]-3-hydroxy-2-methyl-2-(pyridin-2-yl)propan-1-one or (2S)-1-[2-(2,3-dihydro-1,4-benzodioxine-6-sulfonyl)-2H,4H,5H,6H-pyrrolo[3,4-c]pyrazol-5-yl]-3-hydroxy-2-methyl-2-(pyridin-2-yl)propan-1-one]
> 10000 | 0 | Cc1ncccc1[C@@H](N)C(=O)N1Cc2cn(S(=O)(=O)c3ccc4ncsc4c3)nc2C1 (single isomer, unassigned) [Compound 55, (2R)-2-amino-1-[2-(1,3-benzothiazole-6-sulfonyl)-2H,4H,5H,6H-pyrrolo[3,4-c]pyrazol-5-yl]-2-(2-methylpyridin-3-yl)ethan-1-one or (2S)-2-amino-1-[2-(1,3-benzothiazole-6-sulfonyl)-2H,4H,5H,6H-pyrrolo[3,4-c]pyrazol-5-yl]-2-(2-methylpyridin-3-yl)ethan-1-one]
